Laboratory results as given in US10457677B2 (priority 2015, dated 2019).
pIC50: −log10 of the molar value. Like-named read-outs stand apart in the source and are kept apart here.

Columns and labels:
[1] = molecular target: mTOR (human) (Homo sapiens (Human), UniProt P42345); test: mTOR (human) kinase assay, [γ-33P-ATP] filter assay; format: biochemical; conditions: for ratio IC50 (ATM) : IC50 (mTOR), selectivity with respect to mTOR: as printed:
Method: Furthermore, the effect, in particular inhibition, of other kinases and thus the selectivity of the compounds according to the invention can be determined with the aid of the following assay:
mTOR (human) was incubated with 50 mM HEPES pH 7.5, 1 mM EGTA, 0.01% Tween 20, 2 mg/ml of the substrate, 3 mM MnCl2 and [γ-^33P-ATP] (specific activity approximately 500 cpm/pmol, concentration as necessary). The reaction was initiated by addition of MgATP solution. After incubation at room temperature for 40 minutes, the reaction was stopped by addition of 3% phosphoric acid. 10 μl of the reaction solution were then transferred dropwise onto a P30 filtermat and washed three times for 5 min in 75 mM phosphoric acid and once in methanol, dried and evaluated by means of liquid scintillation counting.

[2] = test system: phosphorylation of CHK2 (phospho-Thr68) in HCT116 cells; test: Cellular pCHK2 assay: bleomycin-induced phosphorylation of CHK2 (phospho-Thr68), immunofluorescence high-content analysis; format: cell-based, human; conditions: Homo sapiens, HCT-116, 4 h, read-out: IC50 (pCHK2)
Method in brief: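 HCT116 cells in DMEM with 10% FCS, incubated overnight at 37° C, then given compounds (1 nM to 30 μM, 0.5% DMSO) together with 10 μM bleomycin. Phospho-Thr68 CHK2 immunostained and imaged by high-content imager; nuclei with pCHK2 above background counted, cell count from propidium iodide DNA stain.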

[3] = molecular target: PI3K p110α/p85α (human) (Homo sapiens (Human), UniProt P42336); test: PI3K p110α/p85α (human), non-radioactive assay (HTRF); format: biochemical; conditions: for pIC50: read-out: IC50 (PI3Kalpha); for ratio IC50 (ATM) vs PI3Kalpha, selectivity with respect to PI3Kalpha: as printed:
Method: PI3K p110α/p85α (Human), Non-radioactive Assay
(§1) PI3K p110α/p85α (human) was incubated in an assay buffer comprising 10 μM phosphati-dylinositol 4,5-bisphosphate and MgATP (concentration as necessary). The reaction was initiated by addition of MgATP solution. After incubation at room temperature for 40 minutes, the reaction was stopped by addition of a solution consisting of EDTA and biotinylated phosphatidylinositol 3,4,5-trisphosphate. Finally, the detection buffer, consisting of a europium-labelled anti-GST monoclonal antibody, a GST-labelled GRP1 PH domain and streptavidin allophycocyanin, was added. The plate was read out via homogeneous time-resolved fluorescence (HTRF) and the corresponding signals were evaluated via the formula HTRF=10000×(Em665nm/Em620nm).

[4] = molecular target: PI3K p110β/p85α (human) (Homo sapiens (Human), UniProt P42338); test: PI3K p110β/p85α (human), non-radioactive assay (HTRF); format: biochemical; conditions: for pIC50: read-out: IC50 (PI3Kbeta); for fold selectivity for ATM over PI3Kbeta (IC50 PI3Kbeta / IC50 ATM): IC50 (ATM) at least 2000 times higher compared with IC50 (PI3Kbeta)
Method: PI3K p110β/p85α (Human), Non-radioactive Assay
as §1, with “p110β/p85α” for “p110α/p85α”, “After an” for “After”, “incubation time of 30 min” for “incubation”, “temperature,” for “temperature for 40 minutes,”

[5] = molecular target: purified human recombinant ATM (ataxia telangiectasia mutated), full length (Homo sapiens (Human), UniProt Q13315); test: ATM kinase assay - determination of ATM inhibition (IC50 ATM), TR-FRET; format: biochemical
Method in brief: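 Full-length enzyme, expressed in a mammalian cell line, pre-incubated 15 min with inhibitor in 25 mM HEPES pH 8.0, 10 mM Mg(CH3COO)2, 1 mM MnCl2, 0,1% BSA, 0,01% Brij 35, 5 mM DTT. Full-length cmyc-p53 (Sf21-expressed) and ATP then added, 30-35 min at 22° C. EDTA stop; p53 S15 phosphorylation read by TR-FRET antibodies.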

[6] = molecular target: PI3K (p120γ) (human) (Homo sapiens (Human), UniProt P48736); test: PI3K (p120γ) (human), non-radioactive assay (HTRF); format: biochemical; conditions: for pIC50: read-out: IC50 (PI3Kgamma); for ratio IC50 (ATM) vs PI3Kgamma, selectivity with respect to PI3Kgamma: as printed:
Method: PI3K (p120γ) (Human), Non-radioactive Assay
as §1, with “(p120γ)” for “p110α/p85α”, “After an” for “After”, “incubation time of 30 min” for “incubation”, “temperature,” for “temperature for 40 minutes,”, “HTRF=10000×(Em665nm/Em620nm). • MgATP=magnesium 5′-O—[hydroxy({[(hydroxyphosphinato)oxy]phosphinato}oxy)phosphoryl]adenosine • MgCl2=magnesium dichloride • EGTA=ethylene glycol bis(aminoethyl ether) N,N,N′,N′-tetraacetic acid • Tween 20=polysorbate 20 Medicament/pharmaceutical Composition” for “HTRF=10000×(Em665nm/Em620nm).”

[7] = molecular target: PI3K p110δ/p85α (human) (Homo sapiens (Human), UniProt O00329); test: PI3K p110δ/p85α (human), non-radioactive assay (HTRF); format: biochemical; conditions: for pIC50: read-out: IC50 (PI3Kdelta); for ratio IC50 (ATM) vs PI3Kdelta, selectivity with respect to PI3Kdelta: as printed:
Method: PI3K p110δ/p85α (Human), Non-radioactive Assay
as §1, with “p110δ/p85α” for “p110α/p85α”, “After an” for “After”, “incubation time of 30 min” for “incubation”, “temperature,” for “temperature for 40 minutes,”

Sequence of PI3K (p120γ) (human) (P48736 whole entry): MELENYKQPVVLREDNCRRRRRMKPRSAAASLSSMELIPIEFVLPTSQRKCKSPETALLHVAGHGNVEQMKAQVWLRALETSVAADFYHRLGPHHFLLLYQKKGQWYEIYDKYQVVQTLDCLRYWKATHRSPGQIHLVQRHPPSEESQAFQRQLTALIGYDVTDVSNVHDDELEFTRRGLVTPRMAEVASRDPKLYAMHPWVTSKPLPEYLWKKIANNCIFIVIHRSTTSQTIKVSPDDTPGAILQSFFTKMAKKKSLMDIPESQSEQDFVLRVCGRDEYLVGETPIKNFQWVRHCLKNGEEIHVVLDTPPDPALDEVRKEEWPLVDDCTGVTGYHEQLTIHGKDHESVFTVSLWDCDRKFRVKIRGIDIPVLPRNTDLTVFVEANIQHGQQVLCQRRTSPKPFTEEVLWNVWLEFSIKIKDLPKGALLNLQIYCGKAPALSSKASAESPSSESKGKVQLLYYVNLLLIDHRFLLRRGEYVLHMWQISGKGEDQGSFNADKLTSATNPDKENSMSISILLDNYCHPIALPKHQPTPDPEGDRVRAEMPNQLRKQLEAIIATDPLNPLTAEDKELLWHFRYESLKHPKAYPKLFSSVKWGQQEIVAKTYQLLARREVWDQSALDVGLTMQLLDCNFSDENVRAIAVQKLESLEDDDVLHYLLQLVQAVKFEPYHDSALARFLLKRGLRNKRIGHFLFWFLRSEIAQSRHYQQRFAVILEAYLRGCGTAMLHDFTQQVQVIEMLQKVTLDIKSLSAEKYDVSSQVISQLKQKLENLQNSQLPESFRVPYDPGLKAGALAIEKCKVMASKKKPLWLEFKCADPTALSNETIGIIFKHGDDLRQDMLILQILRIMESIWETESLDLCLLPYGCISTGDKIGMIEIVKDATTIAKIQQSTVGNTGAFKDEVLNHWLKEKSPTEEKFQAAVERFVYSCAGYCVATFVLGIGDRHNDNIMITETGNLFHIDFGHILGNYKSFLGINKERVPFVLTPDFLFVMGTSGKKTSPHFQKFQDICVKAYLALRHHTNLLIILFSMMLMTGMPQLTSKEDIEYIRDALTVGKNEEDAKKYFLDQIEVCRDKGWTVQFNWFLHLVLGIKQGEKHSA
Sequence of PI3K p110δ/p85α (human) (O00329 whole entry): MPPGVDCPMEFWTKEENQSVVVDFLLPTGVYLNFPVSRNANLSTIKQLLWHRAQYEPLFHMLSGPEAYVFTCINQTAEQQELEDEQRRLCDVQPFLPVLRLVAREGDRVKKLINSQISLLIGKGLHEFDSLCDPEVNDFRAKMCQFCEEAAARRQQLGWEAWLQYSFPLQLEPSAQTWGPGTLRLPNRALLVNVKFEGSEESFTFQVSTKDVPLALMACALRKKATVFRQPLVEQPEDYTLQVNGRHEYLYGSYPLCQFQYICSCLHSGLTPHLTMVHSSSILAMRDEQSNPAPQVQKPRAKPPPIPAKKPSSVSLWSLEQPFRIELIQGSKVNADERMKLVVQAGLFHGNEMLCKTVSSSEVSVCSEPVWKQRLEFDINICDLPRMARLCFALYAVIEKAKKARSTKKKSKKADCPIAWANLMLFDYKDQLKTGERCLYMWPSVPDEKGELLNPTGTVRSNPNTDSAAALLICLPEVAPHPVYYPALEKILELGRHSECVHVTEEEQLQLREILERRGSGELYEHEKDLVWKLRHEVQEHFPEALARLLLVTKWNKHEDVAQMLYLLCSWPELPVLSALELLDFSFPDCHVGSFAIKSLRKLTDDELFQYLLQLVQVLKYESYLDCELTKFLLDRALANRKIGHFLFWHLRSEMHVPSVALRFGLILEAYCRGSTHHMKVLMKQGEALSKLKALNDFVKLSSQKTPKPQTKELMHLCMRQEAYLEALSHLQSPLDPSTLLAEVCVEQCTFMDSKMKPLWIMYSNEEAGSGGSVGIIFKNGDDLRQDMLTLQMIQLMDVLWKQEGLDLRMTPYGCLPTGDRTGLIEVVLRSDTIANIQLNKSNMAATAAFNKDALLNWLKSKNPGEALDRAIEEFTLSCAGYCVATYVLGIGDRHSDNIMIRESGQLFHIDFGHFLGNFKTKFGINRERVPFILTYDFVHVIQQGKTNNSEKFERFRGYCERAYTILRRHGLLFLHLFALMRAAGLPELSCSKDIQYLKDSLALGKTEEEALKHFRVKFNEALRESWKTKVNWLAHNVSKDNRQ
Sequence of PI3K p110δ/p85α (human) (P27986 whole entry partner): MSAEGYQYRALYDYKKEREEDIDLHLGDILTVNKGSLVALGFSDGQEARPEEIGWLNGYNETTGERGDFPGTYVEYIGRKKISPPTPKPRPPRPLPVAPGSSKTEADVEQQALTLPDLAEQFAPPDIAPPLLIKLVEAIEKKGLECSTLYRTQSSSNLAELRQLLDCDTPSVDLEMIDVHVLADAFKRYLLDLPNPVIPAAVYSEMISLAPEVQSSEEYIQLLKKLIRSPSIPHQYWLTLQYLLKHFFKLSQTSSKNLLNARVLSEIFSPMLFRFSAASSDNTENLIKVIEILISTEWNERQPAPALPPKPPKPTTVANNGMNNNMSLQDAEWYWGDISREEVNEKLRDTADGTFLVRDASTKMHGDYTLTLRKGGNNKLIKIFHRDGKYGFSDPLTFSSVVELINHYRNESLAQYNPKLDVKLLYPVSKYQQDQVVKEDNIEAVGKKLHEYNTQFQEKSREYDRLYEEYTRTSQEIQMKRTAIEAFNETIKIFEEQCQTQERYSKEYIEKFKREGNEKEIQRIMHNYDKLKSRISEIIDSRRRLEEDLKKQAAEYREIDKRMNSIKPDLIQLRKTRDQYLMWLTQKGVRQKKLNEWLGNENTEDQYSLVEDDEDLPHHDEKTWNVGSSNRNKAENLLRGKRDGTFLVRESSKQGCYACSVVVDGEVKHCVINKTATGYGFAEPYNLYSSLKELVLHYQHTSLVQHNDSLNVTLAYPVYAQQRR
Sequence of PI3K p110β/p85α (human) (P42338 whole entry): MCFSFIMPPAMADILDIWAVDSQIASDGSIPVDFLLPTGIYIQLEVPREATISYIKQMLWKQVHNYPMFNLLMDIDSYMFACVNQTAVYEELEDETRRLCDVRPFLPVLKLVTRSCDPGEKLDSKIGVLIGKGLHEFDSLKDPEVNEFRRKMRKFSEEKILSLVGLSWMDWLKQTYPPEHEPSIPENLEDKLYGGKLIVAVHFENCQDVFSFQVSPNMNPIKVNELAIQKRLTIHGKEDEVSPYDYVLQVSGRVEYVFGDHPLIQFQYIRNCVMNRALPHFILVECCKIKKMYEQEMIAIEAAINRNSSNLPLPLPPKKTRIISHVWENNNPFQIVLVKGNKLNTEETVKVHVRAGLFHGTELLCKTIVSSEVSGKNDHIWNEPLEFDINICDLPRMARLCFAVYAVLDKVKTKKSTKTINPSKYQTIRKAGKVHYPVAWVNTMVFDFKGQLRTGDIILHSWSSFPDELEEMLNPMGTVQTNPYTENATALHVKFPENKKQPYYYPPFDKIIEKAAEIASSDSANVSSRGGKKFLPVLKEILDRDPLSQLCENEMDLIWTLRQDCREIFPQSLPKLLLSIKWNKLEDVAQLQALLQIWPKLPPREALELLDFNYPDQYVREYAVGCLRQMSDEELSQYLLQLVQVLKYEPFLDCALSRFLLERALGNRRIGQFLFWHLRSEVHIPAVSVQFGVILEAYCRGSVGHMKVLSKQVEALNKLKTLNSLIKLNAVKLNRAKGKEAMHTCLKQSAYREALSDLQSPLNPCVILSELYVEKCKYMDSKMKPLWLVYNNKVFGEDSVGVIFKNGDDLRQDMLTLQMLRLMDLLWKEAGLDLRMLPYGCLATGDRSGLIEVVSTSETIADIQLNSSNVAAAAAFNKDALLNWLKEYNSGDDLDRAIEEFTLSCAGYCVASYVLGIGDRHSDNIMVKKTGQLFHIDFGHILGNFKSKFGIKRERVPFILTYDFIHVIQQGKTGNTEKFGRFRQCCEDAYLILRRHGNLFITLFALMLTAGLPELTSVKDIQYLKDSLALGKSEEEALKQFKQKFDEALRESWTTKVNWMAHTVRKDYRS
Sequence of PI3K p110β/p85α (human) (P27986 whole entry partner): as the sequence (P27986 whole entry partner) above
Sequence of PI3K p110α/p85α (human) (P42336 whole entry): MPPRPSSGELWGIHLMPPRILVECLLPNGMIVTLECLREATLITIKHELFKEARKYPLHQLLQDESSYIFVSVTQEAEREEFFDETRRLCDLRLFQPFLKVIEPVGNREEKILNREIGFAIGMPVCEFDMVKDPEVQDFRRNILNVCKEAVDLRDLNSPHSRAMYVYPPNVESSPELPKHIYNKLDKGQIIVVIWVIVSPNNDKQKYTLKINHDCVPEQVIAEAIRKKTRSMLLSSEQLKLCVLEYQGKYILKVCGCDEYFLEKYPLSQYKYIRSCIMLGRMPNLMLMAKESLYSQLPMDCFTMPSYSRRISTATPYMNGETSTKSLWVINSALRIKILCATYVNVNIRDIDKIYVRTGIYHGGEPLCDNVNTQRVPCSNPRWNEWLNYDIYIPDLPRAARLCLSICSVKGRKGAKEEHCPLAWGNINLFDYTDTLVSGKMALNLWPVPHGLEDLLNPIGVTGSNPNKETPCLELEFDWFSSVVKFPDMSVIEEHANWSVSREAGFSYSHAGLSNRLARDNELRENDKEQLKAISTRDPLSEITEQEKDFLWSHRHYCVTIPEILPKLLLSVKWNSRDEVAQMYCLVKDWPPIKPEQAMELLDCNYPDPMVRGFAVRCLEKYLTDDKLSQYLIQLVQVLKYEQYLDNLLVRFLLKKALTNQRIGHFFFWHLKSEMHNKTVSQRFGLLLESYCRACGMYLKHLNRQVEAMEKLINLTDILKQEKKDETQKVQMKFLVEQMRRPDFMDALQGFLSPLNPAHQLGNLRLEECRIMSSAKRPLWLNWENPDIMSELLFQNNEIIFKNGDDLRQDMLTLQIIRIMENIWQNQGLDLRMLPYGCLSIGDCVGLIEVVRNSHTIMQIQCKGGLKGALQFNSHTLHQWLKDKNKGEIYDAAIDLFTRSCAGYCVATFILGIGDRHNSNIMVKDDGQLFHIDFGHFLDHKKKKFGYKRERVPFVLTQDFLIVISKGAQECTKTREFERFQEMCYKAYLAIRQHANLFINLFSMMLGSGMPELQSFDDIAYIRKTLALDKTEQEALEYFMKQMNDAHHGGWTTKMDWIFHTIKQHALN
Sequence of PI3K p110α/p85α (human) (P27986 whole entry partner): as the sequence (P27986 whole entry partner) above

With `COc1cc2ncc3c(c2cc1-c1cn[nH]c1)n(-c1ncc(C)cc1F)c(=O)n3C` [Compound Example 20, 1-(3-Fluoro-5-methylpyridin-2-yl)-7-methoxy-3-methyl-8-(1H-pyrazol-4-yl)-1,3-dihydroimidazo[4,5-c] quinolin-2-one] the pIC50 [1] was less than 4.52, the pIC50 [2] was greater than 6.70 and the pIC50 [3] was less than 4.52. For the same molecule, the pIC50 [4] was less than 4.52, the pIC50 [5] was greater than 9.00 and the pIC50 ([5]; 10 μM ATP, substrate p53) was greater than 9.00. For the same molecule, the pIC50 [6] was less than 4.52 and the pIC50 [7] was less than 4.52.
For `COc1cc2ncc3c(c2cc1-c1cnn(C)c1)n(-c1c(C)cncc1F)c(=O)n3C` [Compound Example 18, 1-(3-Fluoro-5-methylpyridin-4-yl)-7-methoxy-3-methyl-8-(1-methyl-1H-pyrazol-4-yl)-1,3-dihydroimidazo[4,5-c] quinolin-2-one], the pIC50 [1] was less than 5.30, the pIC50 [2] was greater than 6.70 and the pIC50 [3] was less than 5.00. It also gave a pIC50 [4] of less than 4.52, a pIC50 [5] greater than 9.00 and a pIC50 ([5]; 10 μM ATP, substrate p53) greater than 8.00. It also gave a pIC50 [6] of less than 5.30 and a pIC50 [7] of less than 4.52.
In the case of `COc1cc2ncc3c(c2cc1-c1cn[nH]c1)n(-c1cnn(C2CCOCC2)c1)c(=O)n3C` [Compound Example 37, 7-Methoxy-3-methyl-8-(1H-pyrazol-4-yl)-1-[1-(tetrahydropyran-4-yl)-1H-pyrazol-4-yl]-1,3-dihydro-imidazo[4,5-c] quinolin-2-one], the pIC50 [1] was less than 5.00, the pIC50 [2] was greater than 6.70 and the pIC50 [3] was less than 4.52. It also gave a pIC50 [4] of less than 4.52, a pIC50 [5] greater than 8.00 and a pIC50 ([5]; 10 μM ATP, substrate p53) greater than 8.00. The pIC50 [6] was less than 4.52 and the pIC50 [7] was less than 4.52.
`CCn1cc(-c2cc3c(cc2OC)ncc2c3n(-c3cn(C)nc3C)c(=O)n2C)cn1` [Compound Example 21, 1-(1,3-Dimethyl-1H-pyrazol-4-yl)-8-(1-ethyl-1H-pyrazol-4-yl)-7-methoxy-3-methyl-1,3-dihydroimidazo[4,5-c] quinolin-2-one] gave a pIC50 [1] of less than 5.30, a pIC50 [2] greater than 6.70 and a pIC50 [3] of less than 4.70. It also gave a pIC50 [4] of less than 4.52, a pIC50 [5] greater than 9.00 and a pIC50 ([5]; 10 μM ATP, substrate p53) greater than 9.00. For the same molecule, the pIC50 [6] was less than 3.52 and the pIC50 [7] was less than 4.52.
`CCc1cncc(F)c1-n1c(=O)n(C)c2cnc3cc(OC)c(-c4cn[nH]n4)cc3c21` [compound 125, 1-(3-Ethyl-5-fluoropyridin-4-yl)-7-methoxy-3-methyl-8-(2H-1,2,3-triazol-4-yl)-1,3-dihydroimidazo[4,5-c] quinolin-2-one] was tested, and the pIC50 [2] was 6.00 to 6.70, the “ratio IC50 (ATM) vs PI3Kalpha, selectivity with respect to PI3Kalpha” value [3] was “at least 2000 times” and the “fold selectivity for ATM over PI3Kbeta (IC50 PI3Kbeta / IC50 ATM)” value (from here on “fold selectivity … (IC50 PI3Kbeta / IC50 ATM)”) [4] was “at least 2000 times”. For the same molecule, the pIC50 ([5]; 10 μM ATP, substrate p53) was greater than 9.00, the “ratio IC50 (ATM) vs PI3Kgamma, selectivity with respect to PI3Kgamma” value [6] was “at least 2000 times” and the “ratio IC50 (ATM) vs PI3Kdelta, selectivity with respect to PI3Kdelta” value [7] was “at least 2000 times”.
Work on `COc1cc2ncc3c(c2cc1-c1cn(C)nc1C)n(-c1c(F)cncc1OC)c(=O)n3C` [Compound Example 4, 8-(1,3-Dimethyl-1H-pyrazol-4-yl)-1-(3-fluoro-5-methoxy-pyridin-4-yl)-7-methoxy-3-methyl-1,3-dihydroimidazo-[4,5-c]quinolin-2-one] yielded a pIC50 [1] of less than 4.52, a pIC50 [2] greater than 6.70 and a pIC50 [3] of less than 5.30. It also gave a pIC50 [4] of less than 4.52, a pIC50 [6] of less than 4.52 and a pIC50 [7] of less than 5.00.
With `COc1cc2ncc3[nH]c(=O)n(-c4ncc(F)cc4F)c3c2cc1-c1cn(C)nc1C` [compound 108, 1-(3,5-Difluoropyridin-2-yl)-8-(1,3-dimethyl-1H-pyrazol-4-yl)-7-methoxy-1,3-dihydroimidazo[4,5-c]-quinolin-2-one] the pIC50 [2] was 6.00 to 6.70, the “ratio IC50 (ATM) vs PI3Kalpha, selectivity with respect to PI3Kalpha” value [3] was “at least 2000 times” and the “fold selectivity … (IC50 PI3Kbeta / IC50 ATM)” value [4] was “at least 2000 times”. The pIC50 ([5]; 10 μM ATP, substrate p53) was greater than 9.00, the “ratio IC50 (ATM) vs PI3Kgamma, selectivity with respect to PI3Kgamma” value [6] was “at least 2000 times” and the “ratio IC50 (ATM) vs PI3Kdelta, selectivity with respect to PI3Kdelta” value [7] was “at least 2000 times”.
With `COc1cc2ncc3c(c2cc1-c1cnn(C)c1)n(-c1c(C)n[nH]c1C)c(=O)n3C` [compound 118, 1-(3,5-Dimethyl-1H-pyrazol-4-yl)-7-methoxy-3-methyl-8-(1-methyl-1H-pyrazol-4-yl)-1,3-dihydroimidazo[4,5-c]-quinolin-2-one] the “ratio IC50 (ATM) : IC50 (mTOR), selectivity with respect to mTOR” value [1] was “at least 2000 times”, the pIC50 [2] was 6.00 to 6.70 and the “fold selectivity … (IC50 PI3Kbeta / IC50 ATM)” value [4] was “at least 2000 times”. The pIC50 ([5]; 10 μM ATP, substrate p53) was greater than 8.00.
In the case of `COc1cc2ncc3c(c2cc1-c1cnn(C)c1)n(-c1ncc(OCS(C)(=O)=O)cc1F)c(=O)n3C` [compound 201, 1-(3-Fluoro-5-methyl-sulfonylmethoxypyridin-2-yl)-7-methoxy-3-methyl-8-(1-methyl-1H-pyrazol-4-yl)-1,3-dihydroimidazo[4,5-c]-quinolin-2-one], the pIC50 [2] was greater than 6.70, the “ratio IC50 (ATM) vs PI3Kalpha, selectivity with respect to PI3Kalpha” value [3] was “at least 2000 times” and the “fold selectivity … (IC50 PI3Kbeta / IC50 ATM)” value [4] was “at least 2000 times”. The pIC50 ([5]; 10 μM ATP, substrate p53) was greater than 9.00, the “ratio IC50 (ATM) vs PI3Kgamma, selectivity with respect to PI3Kgamma” value [6] was “at least 2000 times” and the “ratio IC50 (ATM) vs PI3Kdelta, selectivity with respect to PI3Kdelta” value [7] was “at least 2000 times”.
With `COc1cc2ncc3c(c2cc1-c1ccc2nc(C)[nH]c2c1)n(-c1c(F)cncc1OC)c(=O)n3C` [compound 136, 1-(3-Fluoro-5-methoxy-pyridin-4-yl)-7-methoxy-3-methyl-8-(2-methyl-3H-benzoimidazol-5-yl)-1,3-dihydroimidazo[4,5-c]-quinolin-2-one] the pIC50 [2] was greater than 6.70, the “fold selectivity … (IC50 PI3Kbeta / IC50 ATM)” value [4] was “at least 2000 times” and the pIC50 ([5]; 10 μM ATP, substrate p53) was greater than 9.00. The “ratio IC50 (ATM) vs PI3Kgamma, selectivity with respect to PI3Kgamma” value [6] was “at least 2000 times”.
In the case of `[2H]C([2H])([2H])Oc1cncc(F)c1-n1c(=O)n(C)c2cnc3cc(OC)c(-c4cnn(C)c4)cc3c21` [compound 145, 1-[3-Fluoro-5-(trideuterio-methoxy)-4-pyridyl]-7-methoxy-3-methyl-8-(1-methylpyrazol-4-yl)imidazo-[4,5-c]quinolin-2-one], the “ratio IC50 (ATM) : IC50 (mTOR), selectivity with respect to mTOR” value [1] was “at least 2000 times”, the pIC50 [2] was 6.00 to 6.70 and the “fold selectivity … (IC50 PI3Kbeta / IC50 ATM)” value [4] was “at least 2000 times”. The pIC50 ([5]; 10 μM ATP, substrate p53) was greater than 9.00, the “ratio IC50 (ATM) vs PI3Kgamma, selectivity with respect to PI3Kgamma” value [6] was “at least 2000 times” and the “ratio IC50 (ATM) vs PI3Kdelta, selectivity with respect to PI3Kdelta” value [7] was “at least 2000 times”.
